Laboratory results as given in PMC3665828 (PLoS ONE, 2013).
Entries after “also recorded” stand apart in the source; their conditions may differ. Read-outs that look alike come from different tables or passages of the source. One block for each molecule: values may come before it. Starred links: 1 amine or outer side, 2 acyl side, 3 side chain; linkers in the order of their positions; H or OH if unused. Residues, ends and D or L forms follow the SMILES beside them. No end group written: not given here. CO = O=C([*:1])[*:2]

Tests used:
[1] = system: angiotensin-generating proteases of immobilized human plasma proteins; assay: Incubation of immobilized human plasma proteins with ANG-1-10 in the presence of protease inhibitors (SRM-MS); format: biochemical
Method: The control was incubated with immobilized plasma proteins in the absence of inhibitors. The incubation with immobilized plasma proteins was carried out as described in “Incubation of immobilized plasma proteins”. The incubation was started by addition of ANG-1-10 to a final concentration of 10^−5 M to the immobilized plasma proteins.
The reaction products were analyzed by SRM-MS after 6 h (Figure S6).
Supplementary file pone.0064027.s006.tif: Figure S6 Processing of ANG-1-10 by immobilized human plasma proteases in the presence and abscence of protease inhibitors. […] Right y-axis: AUC of ANG-2-10 and ANG-3-10 after incubation in presence of EDTA. (TIF) Click here for additional data file.

[2] = biological target: recombinant human aminopeptidase N (APN) (Homo sapiens, UniProt P15144); assay: Incubation of angiotensin peptides with recombinant aminopeptidase N (MALDI-MS); conditions: for Cleavage products generated from the substrate by recombinant aminopeptidase N (APN): substrate 10^−5 M in HPLC-grade water, 0.25 µg recombinant human APN per 100 µl, reaction products detected by MALDI-MS
Chain of recombinant human aminopeptidase N (APN) (Homo sapiens, UniProt P15144) (P15144 whole entry): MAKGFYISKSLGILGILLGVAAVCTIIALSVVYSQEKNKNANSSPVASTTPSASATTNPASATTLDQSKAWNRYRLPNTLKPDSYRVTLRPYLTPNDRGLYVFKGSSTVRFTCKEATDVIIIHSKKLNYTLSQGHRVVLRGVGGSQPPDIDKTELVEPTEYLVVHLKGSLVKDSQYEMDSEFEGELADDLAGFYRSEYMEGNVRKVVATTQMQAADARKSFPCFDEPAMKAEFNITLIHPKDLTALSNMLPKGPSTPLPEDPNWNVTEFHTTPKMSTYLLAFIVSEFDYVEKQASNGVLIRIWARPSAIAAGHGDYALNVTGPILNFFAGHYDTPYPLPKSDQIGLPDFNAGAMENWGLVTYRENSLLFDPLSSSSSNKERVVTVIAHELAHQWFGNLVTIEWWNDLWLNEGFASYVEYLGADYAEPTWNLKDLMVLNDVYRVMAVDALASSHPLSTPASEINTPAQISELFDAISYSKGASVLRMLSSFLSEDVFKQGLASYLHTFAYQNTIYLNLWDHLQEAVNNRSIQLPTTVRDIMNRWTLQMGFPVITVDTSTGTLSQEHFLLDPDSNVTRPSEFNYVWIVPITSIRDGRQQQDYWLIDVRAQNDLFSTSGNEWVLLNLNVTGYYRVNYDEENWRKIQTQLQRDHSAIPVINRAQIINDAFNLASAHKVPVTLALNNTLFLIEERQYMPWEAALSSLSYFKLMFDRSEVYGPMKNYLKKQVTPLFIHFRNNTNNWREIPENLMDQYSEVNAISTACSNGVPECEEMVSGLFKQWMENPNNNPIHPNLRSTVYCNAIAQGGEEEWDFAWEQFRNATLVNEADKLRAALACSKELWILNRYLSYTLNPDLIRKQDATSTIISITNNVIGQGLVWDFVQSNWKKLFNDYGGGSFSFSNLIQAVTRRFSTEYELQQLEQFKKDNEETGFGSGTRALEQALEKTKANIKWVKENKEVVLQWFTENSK
Method: (§1) At defined incubation times aliquots (10 µl) were taken from the reaction mixtures. Reaction was stopped by addition of formic acid adjusting a final concentration of 0.2% (v/v) formic acid/HPLC-grade water. Samples were analyzed by MALDI-MS (Reflex IV, Bruker) using DHB as matrix.
APN is a protease that is known to cleave ANG-2-8 between the Arg2-Val3 in vitro [22] and in vivo [23], [24]. Thus it is a potential protease for the generation of ANG-3-10.

[3] = system: immobilized rat plasma proteins
Method: (§2) Heparinized (10 IU/ml) mouse and rat blood (200 µl) was obtained from the caudal vein. Plasma was isolated from all blood samples by centrifugation (4–16 K, Sigma) 4000×g for 15 min.
(§3) For the immobilization of plasma proteins CNBr-activated Sepharosebeads® 6MB (GE Healthcare) were used. Protein immobilization was perfomed as described in the product information sheet for CNBr-activated Sepharosebeads® (Sigma Aldrich) except for modifications described in the supporting information part “immobilization of plasma proteins” (Methods S1).
Incubation of immobilized plasma proteins and the control samples (glycine derivatized Sepharosebeads® without immobilized proteins and heat inactivated immobilized plasma proteins for the incubation with ANG-1-10) was started by addition of the individual angiotensin peptides (final concentration of 10^−5 M, solved in HPLC-grade water, Lichrosolve, Merck) to the beads. Incubation was carried out at 37°C on a rotating shaker. The final reaction volume of the samples was 30 µl.
Identification of the reaction products was done by comparison of the m/z values of the peaks in the mass spectra with the theoretical m/z values (Table S2) of possible angiotensin peptide products.
ANG-1-10 (10^−5 M) was incubated with immobilized rat plasma proteins. Reaction products were detected by MALDI-MS after 0 h, 1 h, 3 h and 8 h.

[4] = system: immobilized human plasma proteins; assay: Incubation of angiotensin peptides with immobilized human plasma proteins; format: in vitro ADME
Method: For incubation experiments human venous citrate blood (ratio 1∶9, blood to sodium citrate 3,13% (Eifelfango)) was obtained by catheterization from the cubital vein of a healthy volunteer (blood pressure: normal, <120/80 mmHg).
Analysis of the reaction by SRM was performed on a LC-ESI-QQQ-MS system. Exoproteolytic processing of these angiotensin peptides requires the presence of plasma proteases which are able to cognate and cleave the intermediate angiotensin peptides. […] When ANG-5-10 was incubated in presence of human immobilized plasma proteins time the dependent generation of ANG-6-10 was detected. After an incubation period of 8 h nearly no angiotensin peptides were detected in any of the reaction mixtures.
Dry Sepharosebeads® were swollen in 10 ml 0.1 mM hydrochloric acid/ HPLC (high pressure liquid chromatography)-grade water for 30 min on a rotating shaker. Subsequently they were washed repeatedly with HPLC-grade water (Lichrosolve, Merck). Afterwards Sepharosebeads® were equilibrated by multiple washing steps with protein coupling buffer (100 mM NaHCO3, 500 mM NaCl, pH 8,3). For protein immobilization plasma samples with a volume of 40 µl were mixed with coupling buffer in a ratio of 1:6 and mixed with the prepared Sepharosebeads® followed by incubation for 2h on a rotating shaker (room temperature). As a control heat inactivated plasma (boiled for 5 min) was immobilized. A volume of 40 µl swollen Sepharosebeads® was used per sample. After protein immobilization the Sepharosebeads® were washed three times with HPLC-grade water. Free binding sites of the Sepharosebeads® were saturated by incubation with blocking buffer (100 mM NaHCO3,500 mM NaCl, pH 8,3, 1 M Glycine, pH 8,3) for 2h on a rotating shaker (room temperature).

[5] = system: non-immobilized human plasma
Method: From this blood sample an aliquot of 10 ml was saved for the incubation experiments. The rest of the blood sample was immediately mixed with protease inhibitor cocktail (including 2 mM AEBSF, 0.3 µM aprotinin, 130 µM bestatin, 1 mM EDTA, 14 µM E-64 and 1 µM leupeptin (Sigma-Aldrich)) in a ratio of 1∶50.
For incubation of non-immobilized plasma a reaction volume of 200 µl non-immobilized undiluted and diluted plasma (1∶100 in HPLC-grade water) was used per sample. Incubation was started by addition of ANG-1-10 to a final concentration of 10^−5 M. Incubation was carried out at 37°C on a rotating shaker. As a control 200 µl of a 10^−5 M ANG-1-10 solution without plasma was incubated under the same conditions.
The reaction products derived from the incubation of non-immobilized plasma proteins were desalted by solid phase extraction (Hydophilic lipophilic balance (HLB) µElution plate, Waters). The HLB material was equilibrated by three washing steps with 0.2% formic acid/HPLC-grade water by centrifugation of the plate for 1 min with 500×g. Next, the sample was applied to the HLB material and centrifuged for 2 min with 200×g. The flow-through was discarded and unbound molecules were removed by washing the HLB material 3 times with 0.2% formic acid/HPLC-grade water by centrifugation of the plate for 2 min with 500×g. […]

[6] = system: immobilized mouse plasma proteins
Method: as §2, §3
Incubation of immobilized plasma proteins and the control samples (glycine derivatized Sepharosebeads® without immobilized proteins and heat inactivated immobilized plasma proteins for the incubation with ANG-1-10) was started by addition of the individual angiotensin peptides (final concentration of 10^−5 M, solved in HPLC-grade water, Lichrosolve, Merck) to the beads. Incubation was carried out at 37°C on a rotating shaker. […]
To investigate the processing of ANG-1-10 by human plasma proteases we used a mass spectrometry based enzyme screening (MES) system [20]. Therefore immobilized murine and human plasma proteins were incubated with ANG-1-10 and the reaction products were analyzed by mass spectrometry. […]
ANG-1-10 (10^−5 M) was incubated with immobilized mouse plasma proteins. Reaction products were detected by MALDI-MS after 0 h, 3 h, 4 h and 8 h. […]

[7] = system: recombinant human aminopeptidase N (APN); assay: 0.25 µg recombinant human aminopeptidase N in 100 µl angiotensin solution; conditions: up to 24 h
recombinant human ACE-1 = recombinant human ACE-1 (Homo sapiens, UniProt P12821); assay: Incubation of angiotensin peptides with recombinant ACE-1 (MALDI-MS); conditions: peptide 10^−5 M, 0.25 µg recombinant human ACE-1, MALDI-MS after 8 h
Chain of recombinant human ACE-1 (P12821 30-1306): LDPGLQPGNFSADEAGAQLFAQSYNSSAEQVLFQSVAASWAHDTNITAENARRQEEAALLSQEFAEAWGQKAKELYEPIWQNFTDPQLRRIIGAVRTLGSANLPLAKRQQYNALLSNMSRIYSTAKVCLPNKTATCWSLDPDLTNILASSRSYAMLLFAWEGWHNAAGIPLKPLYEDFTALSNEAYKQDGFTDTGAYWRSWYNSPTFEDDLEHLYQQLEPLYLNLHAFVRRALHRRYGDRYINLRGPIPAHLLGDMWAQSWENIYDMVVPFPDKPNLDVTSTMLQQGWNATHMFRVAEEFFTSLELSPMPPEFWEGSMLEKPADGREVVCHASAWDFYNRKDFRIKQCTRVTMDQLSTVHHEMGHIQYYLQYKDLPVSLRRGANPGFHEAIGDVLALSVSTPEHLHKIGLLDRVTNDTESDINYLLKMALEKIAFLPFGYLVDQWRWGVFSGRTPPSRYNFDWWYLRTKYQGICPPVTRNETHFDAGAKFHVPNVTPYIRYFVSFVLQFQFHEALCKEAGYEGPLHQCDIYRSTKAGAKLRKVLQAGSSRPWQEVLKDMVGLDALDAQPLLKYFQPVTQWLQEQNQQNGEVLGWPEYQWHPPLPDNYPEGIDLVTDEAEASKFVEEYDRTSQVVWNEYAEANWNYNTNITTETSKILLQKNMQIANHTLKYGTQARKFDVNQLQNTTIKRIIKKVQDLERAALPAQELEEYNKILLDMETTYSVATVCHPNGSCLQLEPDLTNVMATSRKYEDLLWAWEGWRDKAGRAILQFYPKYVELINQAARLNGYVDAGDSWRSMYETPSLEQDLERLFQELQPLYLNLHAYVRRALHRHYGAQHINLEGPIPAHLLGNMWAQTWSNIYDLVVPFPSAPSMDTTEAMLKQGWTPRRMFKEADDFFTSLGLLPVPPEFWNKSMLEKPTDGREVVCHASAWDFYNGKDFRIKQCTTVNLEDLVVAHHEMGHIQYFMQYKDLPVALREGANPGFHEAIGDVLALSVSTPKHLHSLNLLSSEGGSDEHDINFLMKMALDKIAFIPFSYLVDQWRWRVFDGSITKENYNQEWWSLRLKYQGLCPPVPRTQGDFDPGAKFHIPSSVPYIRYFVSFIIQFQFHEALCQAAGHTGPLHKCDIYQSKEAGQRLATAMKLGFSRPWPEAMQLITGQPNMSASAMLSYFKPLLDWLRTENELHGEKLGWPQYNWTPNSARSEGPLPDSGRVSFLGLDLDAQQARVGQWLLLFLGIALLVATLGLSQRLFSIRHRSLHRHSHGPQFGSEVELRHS
Method: as §1
It is known that ACE-1 generates ANG-1-8 by removal of the last two C-terminal amino acids (His9-Leu10) of ANG-1-10. […] The reaction products were analyzed by MALDI-MS (Figure S7).
Supplementary file pone.0064027.s007.tif: Figure S7 Processing of angiotensin peptides by recombinant ACE-1. […] ACE-1 was incubated with A) ANG-1-10, B) ANG-2-10, C) ANG-3-10, D) ANG-4-10, E) ANG-5-10. Reaction products were analyzed by MALDI-MS after an incubation time of 8 h. MALDI-MS-Signals which were assigned as angiotensin peptides are marked by arrows. (TIF) Click here for additional data file.

[8] = system: angiotensin converting enzyme-1 (ACE-1); assay: 0.25 µg recombinant human ACE-1 in 100 µl angiotensin solution; conditions: up to 8 h
[9] = immobilized human plasma proteins (CNBr-activated Sepharosebeads); conditions: 37°C, up to 24 h
APN = assay: in vitro and in vivo; conditions: cited from earlier work
[10] = system: anti ANG-1-10 antibody (rabbit polyclonal); conditions: rabbit polyclonal antibody of the kit; ref Fluorescent EIA Kit, phoenix pharmaceuticals; cited from earlier work
Method: The RP-HPLC plasma peptide fractionations corresponding to the retention times of the synthetic angiotensin peptides were analyzed by an immuno-fluorescence assay that was originally manufactured for the quantification of ANG-1-10.

rat blood = conditions: cited from earlier work
[11] = ANG-1-10 10^−5 M, immobilized human plasma proteins, 200 µM AEBSF, 50 µM antipain, 150 µM bestatin, 100 µM EDTA, SRM-MS after 6 h, mean ± SEM, n = 3
[12] = ANG-1-10 10^−5 M, immobilized human plasma proteins, 200 µM AEBSF, 50 µM antipain, 150 µM bestatin, 10 µM captopril, 100 µM chymostatin, 100 µM EDTA, SRM-MS after 6 h, mean ± SEM, n = 3
[13] = substrate 10^−5 M, immobilized human plasma proteins, 37°C, SRM-MS (LC-ESI-QQQ-MS) / MALDI-MS

- not cleaved [7]: not further degraded by APN within 24 h
Molecule: HPFHL

- Stability towards APN ([2]; within 24 h of incubation with recombinant APN, MALDI-MS): not further degraded
- Reaction product generated by recombinant ACE-1 (recombinant human ACE-1): no cleavage product was observed
Molecule: HPFHL [ANG-6-10]

- cleaved bond [8]: F8-His9
- fragment found [7]: ANG-6-10
- fragment found [9]: ANG-6-10
Molecule: IHPFHL

- Reaction products generated from the substrate by immobilized human plasma proteins [4, 13]: ANG-6-10
- Cleavage products generated from the substrate by recombinant aminopeptidase N (APN) [2]: HPFHL
- Reaction product generated by recombinant ACE-1 (recombinant human ACE-1): ANG-5-8
Molecule: IHPFHL [ANG-5-10]

- cleaved bond [8]: F8-His9
Molecule: RVYIHPFHL
- fragment found [7]: ANG-3-10, 1 h; also recorded: ANG-4-10, 1 h; also recorded: ANG-5-10, 4 h; also recorded: ANG-6-10, 8 h
- fragment found [9]: ANG-3-10; also recorded: ANG-4-10; also recorded: ANG-5-10; also recorded: ANG-6-10; also recorded: ANG-2-8, 8 h; also recorded: ANG-3-8, 8 h; also recorded: ANG-4-8, 8 h
- fragment found (rat blood): ANG-2-8

- cleaved bond [8]: F8-His9
Molecule: VYIHPFHL
- fragment found [7]: ANG-4-10, 1 h; also recorded: ANG-6-10, 1 h
- fragment found [9]: ANG-4-10; also recorded: ANG-5-10; also recorded: ANG-6-10

- cleaved bond [8]: F8-His9
- fragment found [9]: ANG-5-10; also recorded: ANG-6-10
Molecule: YIHPFHL
- fragment found [7]: ANG-5-10, 1 h; also recorded: ANG-6-10, 1 h

More lines, now with the values behind:

Molecule: NCCc1ccc(S(=O)(=O)F)cc1 [AEBSF]
- Change of ANG-3-10-generating activity in the presence of inhibitor [1, 11]: inhibited

Molecule: CC[C@H](C)[C@H](NC(=O)[C@H](Cc1ccc(O)cc1)NC(=O)[C@@H](NC(=O)[C@H](CCCNC(=N)N)NC(=O)[C@@H](N)CC(=O)O)C(C)C)C(=O)N[C@@H](Cc1cnc[nH]1)C(=O)N1CCC[C@H]1C(=O)N[C@@H](Cc1ccccc1)C(=O)O [ANG-1-8, angiotensin II]
- Cleavage products generated from the substrate by recombinant aminopeptidase N (APN) [2]: none

Molecule: CC(C)[C@H](NC(=O)[C@H](CCCNC(=N)N)NC(=O)N[C@@H](Cc1ccccc1)C(=O)O)C(=O)N[C@H](C=O)CCCNC(=N)N [Antipain] ({Phe-CO}-Arg-Val-Arg-aldehyde)
- Change of ANG-6-10-generating activity in the presence of inhibitor [1]: slightly inhibited
- Change of ANG-2-10-generating activity in the presence of inhibitor ([1]; ANG-1-10 10^−5 M, immobilized human plasma proteins, 50 µM antipain, 150 µM bestatin, 100 µM EDTA, SRM-MS after 6 h, mean ± SEM, n = 3): −0.12±0.023
- Change of ANG-4-10-generating activity in the presence of inhibitor ([1]; ANG-1-10 10^−5 M, immobilized human plasma proteins, 50 µM antipain, SRM-MS after 6 h, mean ± SEM, n = 3): -0.21±0.05
- Change of ANG-3-10-generating activity in the presence of inhibitor [1, 11]: inhibited

Molecule: CC(C)C[C@H](NC(=O)[C@@H](O)[C@H](N)Cc1ccccc1)C(=O)O [Bestatin]
- Change of ANG-6-10-generating activity in the presence of inhibitor [1, 12]: 0.76±0.14
- Change of ANG-3-10-generating activity in the presence of inhibitor [1, 11]: Higher amounts

Molecule: C[C@H](CS)C(=O)N1CCC[C@H]1C(=O)O [Captopril]
- Change of ANG-6-10-generating activity in the presence of inhibitor [1, 12]: 0.98±0.32

Molecule: CC(C)C[C@H](NC(=O)[C@@H](NC(=O)N[C@@H](Cc1ccccc1)C(=O)O)[C@@H]1CCN=C(N)N1)C(=O)N[C@H](C=O)Cc1ccccc1 [Chymostatin]
- Change of ANG-6-10-generating activity in the presence of inhibitor [1]: 1.30±0.14

Molecule: O=C(O)CN(CCN(CC(=O)O)CC(=O)O)CC(=O)O [EDTA]
- Change of ANG-3-10-generating activity in the presence of inhibitor [1, 11]: 3.4±0.8

Molecule: DRVYIHPFHL [ANG-1-10, angiotensin I]
- Only reaction products left after 8 h of incubation, rat plasma [3]: ANG-1-7, ANG-1-8 and ANG-5-10
- Reaction products generated from the substrate by immobilized rat plasma proteins [3]: ANG-1-8 (m/z 1046.5), ANG-1-7 (m/z 899.5), ANG-2-10 (m/z 1181.7), ANG-3-10 (m/z 1025.6), ANG-4-10 (m/z 926.5), ANG-5-10 (m/z 763.4)
- Reaction products generated from the substrate by immobilized human plasma proteins [4]: A-1-9, ANG-1-8, ANG-1-7, ANG-2-10, ANG-3-10, ANG-4-10, ANG-5-10 and ANG-6-10
- Reaction products generated from the substrate by non-immobilized human plasma proteins [5]: A-1-9, ANG-1-8, ANG-1-7, ANG-2-10, ANG-3-10, ANG-4-10, ANG-5-10 and ANG-6-10
- Only reaction products left after 8 h of incubation, mouse plasma [6]: ANG-1-8
- Reaction products generated from the substrate by immobilized mouse plasma proteins [6]: ANG-1-8 (m/z 1046.5), ANG-1-7 (m/z 899.5), ANG-2-10 (m/z 1181.7), ANG-3-10 (m/z 1025.6), ANG-4-10 (m/z 926.5), ANG-5-10 (m/z 763.4)

Molecule: RVYIHPF
- cleaved bond (APN): Arg2-Val3

Molecule: RVYIHPF [ANG-2-8, angiotensin peptide also known as AIII]
- Cross reactivity with the anti ANG-1-10 antibody [10]: no cross reactivity

Molecule: RVYIHPFHL [ANG-2-10]
- Further reaction products detected by MALDI-MS after 8 h of incubation ([4]; substrate 10^−5 M, immobilized human plasma proteins, 37°C, MALDI-MS after 8 h): ANG-2-8 (m/z 931.5), ANG-3-8 (m/z 775.4) and ANG-4-8 (m/z 676.3)
- Reaction products generated from the substrate by immobilized human plasma proteins [4, 13]: ANG-3-10, ANG-4-10, ANG-5-10 and ANG-6-10
- Cleavage products generated from the substrate by recombinant aminopeptidase N (APN) [2]: VYIHPFHL; also recorded: YIHPFHL; also recorded: IHPFHL; also recorded: HPFHL
- Reaction product generated by recombinant ACE-1 (recombinant human ACE-1): ANG-2-8

Molecule: VYIHPFHL [ANG-3-10]
- Reaction products generated from the substrate by immobilized human plasma proteins [4, 13]: ANG-4-10, ANG-5-10 and ANG-6-10
- Cleavage products generated from the substrate by recombinant aminopeptidase N (APN) [2]: YIHPFHL; also recorded: HPFHL
- Reaction product generated by recombinant ACE-1 (recombinant human ACE-1): ANG-3-8

Molecule: YIHPFHL [ANG-4-10]
- Cleavage products generated from the substrate by recombinant aminopeptidase N (APN) [2]: IHPFHL; also recorded: HPFHL
- Reaction product generated by recombinant ACE-1 (recombinant human ACE-1): ANG-4-8
